How the values were obtained:
B-cell [1] = test: Immunosuppressive activity in Balb/c mouse B cells assessed as LPS-induced cell proliferation at 1 uM after 48 hrs by MTT assay relative to control; assay type: functional
B-cell [2] = test: Immunosuppressive activity in Balb/c mouse B cells assessed as LPS-induced cell proliferation at 10 uM after 48 hrs by MTT assay relative to control; assay type: functional
T-cell [3] = test: Immunosuppressive activity in Balb/c mouse T cells assessed as ConA-induced cell proliferation at 100 uM after 48 hrs by MTT assay relative to control; assay type: functional
B-cell [4] = test: Immunosuppressive activity in Balb/c mouse B cells assessed as LPS-induced cell proliferation at 100 uM after 48 hrs by MTT assay relative to control; assay type: functional
T-cell [5] = test: Immunosuppressive activity in Balb/c mouse T cells assessed as ConA-induced cell proliferation at 10 uM after 48 hrs by MTT assay relative to control; assay type: functional
T-cell [6] = test: Immunosuppressive activity in Balb/c mouse T cells assessed as ConA-induced cell proliferation at 1 uM after 48 hrs by MTT assay relative to control; assay type: functional
T-cell [7] = test: Immunostimulant activity in Balb/c mouse T cells assessed as ConA-induced cell proliferation at 100 uM after 48 hrs by MTT assay relative to control; assay type: ADME, cell-based
B-cell [8] = test: Cytotoxicity against Balb/c mouse B cells assessed as reduction in cell proliferation at 100 uM after 48 hrs by MTT assay; assay type: cell-based
T-cell [9] = test: Immunostimulant activity in Balb/c mouse T cells assessed as ConA-induced cell proliferation at 1 uM after 48 hrs by MTT assay relative to control; assay type: ADME, cell-based
B-cell [10] = test: Cytotoxicity against Balb/c mouse B cells assessed as reduction in cell proliferation at 10 uM after 48 hrs by MTT assay; assay type: cell-based
B-cell [11] = test: Immunostimulant activity in Balb/c mouse B cells assessed as LPS-induced cell proliferation at 1 uM after 48 hrs by MTT assay relative to control; assay type: ADME, cell-based
T-cell [12] = test: Cytotoxicity against Balb/c mouse T cells assessed as reduction in cell proliferation at 1 uM after 48 hrs by MTT assay; assay type: cell-based
T-cell [13] = test: Immunostimulant activity in Balb/c mouse T cells assessed as ConA-induced cell proliferation at 10 uM after 48 hrs by MTT assay relative to control; assay type: ADME, cell-based
T-cell [14] = test: Cytotoxicity against Balb/c mouse T cells assessed as reduction in cell proliferation at 100 uM after 48 hrs by MTT assay; assay type: cell-based
T-cell [15] = test: Cytotoxicity against Balb/c mouse T cells assessed as reduction in cell proliferation at 10 uM after 48 hrs by MTT assay; assay type: cell-based
B-cell [16] = test: Cytotoxicity against Balb/c mouse B cells assessed as reduction in cell proliferation at 1 uM after 48 hrs by MTT assay; assay type: cell-based
B-cell [17] = test: Immunostimulant activity in Balb/c mouse B cells assessed as LPS-induced cell proliferation at 10 uM after 48 hrs by MTT assay relative to control; assay type: ADME, cell-based
B-cell [18] = test: Immunostimulant activity in Balb/c mouse B cells assessed as LPS-induced cell proliferation at 100 uM after 48 hrs by MTT assay relative to control; assay type: ADME, cell-based

Compound | Activity (B-cell [1]) [%] | Activity (B-cell [2]) [%] | Activity (T-cell [3]) [%] | Activity (B-cell [4]) [%] | Activity (T-cell [5]) [%] | Activity (T-cell [6]) [%] | Activity (T-cell [7]) [%] | Activity (B-cell [8]) | Activity (T-cell [9]) [%] | Activity (B-cell [10]) | Activity (B-cell [11]) [%] | Activity (T-cell [12]) | Activity (T-cell [13]) [%] | Activity (T-cell [14]) | Activity (T-cell [15]) | Activity (B-cell [16]) | Activity (B-cell [17]) [%] | Activity (B-cell [18]) [%]
Cc1cc(OCc2cnnn2-c2ccc(C=O)cc2)c(C)c2c1CC[C@H]1[C@H](C)C(=O)O[C@@H]21 | -24.16 | -22.5 | -20.83 | -35 | -6.66 | -5.83 | – | – | – | – | – | – | – | – | – | – | – | –
CCOC(=O)[C@H](C)c1ccc2c(C)cc(O)c(C=O)c2c1 | – | -5.3 | – | -2.65 | – | – | 24.74 | Toxic | 34.02 | Toxic | 14.15 | Toxic | 49.48 | Toxic | Toxic | Toxic | – | –
Cc1ccc(NC(=O)[C@H](C)[C@@H]2CCc3c(C)cc(O)c(C)c3C2)cc1O | – | – | – | -29.35 | – | – | 9.89 | Non-Toxic | 11.53 | Non-Toxic | 6.96 | Non-Toxic | 3.84 | Non-Toxic | Non-Toxic | Non-Toxic | 11.44 | –
CCOC(=O)[C@H](C)c1ccc2c(C)cc(O)c(C)c2c1 | -3.84 | – | – | -6.41 | – | – | 5.91 | Toxic | 15.59 | Toxic | – | Toxic | 39.78 | Toxic | Toxic | Toxic | 23.5 | –
Cc1cc(OCc2cnnn2-c2cccc(I)c2)c(C)c2c1CC[C@H]1[C@H](C)C(=O)O[C@@H]21 | -15.79 | -20 | -3.15 | -15.79 | -20 | -15.79 | – | – | – | – | – | – | – | – | – | – | – | –
CC(=O)Nc1ccc(-n2nncc2COc2cc(C)c3c(c2C)[C@@H]2OC(=O)[C@@H](C)[C@@H]2CC3)cc1 | -44.21 | -36.84 | -6.31 | -8.42 | -29.47 | -28.42 | – | – | – | – | – | – | – | – | – | – | – | –
Cc1ccc(I)cc1-n1nncc1COc1cc(C)c2c(c1C)[C@@H]1OC(=O)[C@@H](C)[C@@H]1CC2 | -34.73 | -14.73 | -23.15 | -16.84 | -26.31 | -13.68 | – | – | – | – | – | – | – | – | – | – | – | –
Cc1cc(OCc2cnnn2-c2ccc3c(c2)OCO3)c(C)c2c1CC[C@H]1[C@H](C)C(=O)O[C@@H]21 | -14.73 | -50.52 | -29.47 | -32.63 | -45.26 | -29.47 | – | – | – | – | – | – | – | – | – | – | – | –
COc1cc(C)c2ccc([C@@H](C)C(=O)O)cc2c1C | – | – | – | – | -25 | – | 13.07 | Non-Toxic | 9.52 | Toxic | 86.66 | Toxic | – | Non-Toxic | Toxic | Toxic | 13.33 | 4.76
CCOC(=O)[C@H](C)c1ccc2c(C)cc(OC)c(C)c2c1 | -40.1 | -23.07 | -5.88 | -25.82 | -37.5 | -31.61 | – | Toxic | – | Toxic | – | Non-Toxic | – | Toxic | Toxic | Non-Toxic | – | –
COc1cccc(NC(=O)[C@H](C)[C@@H]2CCc3c(C)cc(O)c(C)c3C2)c1 | -0.99 | – | -31.86 | -13.93 | -12.63 | – | – | Non-Toxic | 8.79 | Non-Toxic | – | Toxic | – | Non-Toxic | Non-Toxic | Toxic | 3.98 | –
Cc1cc(O)c(C)c2c1CC[C@@H]([C@@H](C)C(=O)N1CCOCC1)C2 | -4.97 | – | -21.42 | -2.98 | – | – | – | Non-Toxic | 8.79 | Non-Toxic | – | Non-Toxic | 12.08 | Non-Toxic | Non-Toxic | Non-Toxic | 14.92 | –
Cc1cc(O)c(C)c2c1CC[C@@H]([C@@H](C)C(=O)O)C2 | – | -1.76 | – | – | – | – | 1.03 | Toxic | 4.12 | Toxic | 15.92 | Toxic | 3.09 | Toxic | Toxic | Toxic | – | 20.35
CC1=C(Cl)C=C[C@]2(C)CC[C@@H]3C(=C12)OC(=O)[C@H]3C | -8.84 | – | – | -4.42 | – | -5.15 | 9.27 | Toxic | – | Toxic | – | Toxic | 16.49 | Toxic | Toxic | Toxic | 7.96 | –
CC(=O)OCC(C)C1CCc2c(C)cc(OC(C)=O)c(C)c2C1O (stereo unspecified) | – | – | – | – | – | – | 18.55 | Non-Toxic | 37.11 | Toxic | 2.65 | Toxic | 17.52 | Non-Toxic | Toxic | Toxic | 1.76 | 5.3
Cc1cc(O)c(C)c2c1CCC(C(C)CO)C2O (stereo unspecified) | – | – | – | -11.96 | – | – | 6.45 | Toxic | 31.18 | Toxic | 14.52 | Toxic | 26.34 | Toxic | Toxic | Toxic | 8.54 | –
Cc1cc(OCc2cnnn2/C=C/c2ccccc2)c(C)c2c1CC[C@H]1[C@H](C)C(=O)O[C@@H]21 | – | -7.69 | -95.12 | – | -95.12 | -95.12 | – | – | – | – | 36.75 | – | – | – | – | – | – | 48.71
Cc1cc(O)c(C)c2c1CC[C@@H]([C@@H](C)C(=O)Nc1nccc(C)c1[N+](=O)[O-])C2 | – | – | -26.37 | -2.98 | – | – | – | Non-Toxic | 24.72 | Toxic | 28.35 | Toxic | 42.85 | Non-Toxic | Toxic | Toxic | 64.67 | –
Cc1c(N)c(O)c(C)c2c1CC[C@H]1[C@H](C)C(=O)O[C@@H]21 | – | – | – | -16.66 | – | – | 5.91 | Toxic | 13.97 | Toxic | 17.52 | Toxic | 36.02 | Toxic | Toxic | Toxic | 33.33 | –
COc1cc(-n2nncc2COc2cc(C)c3c(c2C)[C@@H]2OC(=O)[C@@H](C)[C@@H]2CC3)cc(OC)c1OC | -16.84 | -26.31 | -16.84 | -14.73 | -14.73 | -20 | – | – | – | – | – | – | – | – | – | – | – | –
Cc1cc(O)c(C)c2c1CCC1C2OC(O)C1C (stereo unspecified) | – | – | – | -12.38 | – | – | 16.49 | Toxic | 31.95 | Toxic | 13.27 | Toxic | 16.49 | Toxic | Toxic | Toxic | 9.73 | –
COc1ccc2cc(-n3nncc3COc3cc(C)c4c(c3C)[C@@H]3OC(=O)[C@@H](C)[C@@H]3CC4)ccc2c1 | -36.75 | -25.64 | -93.9 | -94.01 | -95.12 | -93.9 | – | – | – | – | – | – | – | – | – | – | – | –

From ChEMBL document CHEMBL3994585, “Synthesis of α-santonin derivatives for diminutive effect on T and B-cell proliferation and their structure activity relationships” (Eur J Med Chem, 2017)
